test system: Fusarium solani; test: Antifungal activity against Fusarium solani measured after 24 to 48 hrs by turbidimetry; assay type: functional; conditions: time 24-48 hrs

Which MIC does the source give for CC1(C)CC[C@]2(C)CC[C@]3(C)[C@H]4CC=C5[C@@H](Cc6c([nH]c7ccccc67)C5(C)C)[C@]4(C)CC[C@@]3(C)[C@@H]2C1 here?
Its MIC is > 50 µg/mL.

C=C(C)C1=CC[C@H]2[C@@](C)(CC[C@@]3(C)[C@@H]4CC(C)(C)CC[C@]4(C)CC[C@]23C)[C@@H]1CCC#N was tested. Which MIC did it give?
Its MIC is 59.2 µM.

How did the MIC turn out when CC1(C)CC[C@]2(C)CC[C@]3(C)[C@H]4CC=C5[C@@H](CC(C=O)=C(O)C5(C)C)[C@]4(C)CC[C@@]3(C)[C@@H]2C1 was run?
Its MIC is 55.2 µM.

How did the MIC turn out when CC1(C)CC[C@]2(C)CC[C@]3(C)c4ccc5c(c4CC[C@@]3(C)[C@@H]2C1)C=CC(=O)C5(C)C was run?
Its MIC is > 50 µg/mL.

For CC1(C)CC[C@]2(C)CC[C@]3(C)[C@H]4CC=C5[C@@H](Cc6cnn(-c7nc8ccccc8s7)c6C5(C)C)[C@]4(C)CC[C@@]3(C)[C@@H]2C1, which MIC is on record?
Its MIC is 43 µM.

For CC1(C)CC[C@]2(C)CC[C@]3(C)[C@@H](CC=O)[C@](C)([C@@H]4CC[C@H](O)C(C)(C)C4=O)CC[C@@]3(C)[C@@H]2C1, which MIC is on record?
Its MIC is 109 µM.

Which MIC does the source give for CC1(C)CC[C@]2(C)CC[C@]3(C)[C@H]4CC=C5[C@@H](Cc6sc(N)nc6C5(C)C)[C@]4(C)CC[C@@]3(C)[C@@H]2C1 here?
The MIC was > 50 µg/mL.

CC1(C)CC[C@]2(C)CC[C@]3(C)[C@H]4CC=C5C(=CCC(=O)C5(C)C)[C@]4(C)CC[C@@]3(C)[C@@H]2C1 was tested. Which MIC did it give?
The MIC was > 50 µg/mL.

CC1(C)CC[C@]2(C)CC[C@]3(C)[C@H]4C=CC5=C(C=C(Br)C(=O)C5(C)C)[C@]4(C)CC[C@@]3(C)[C@@H]2C1 was tested. Which MIC did it give?
Its MIC is > 50 µg/mL.

With CC1(C)CC[C@]2(C)CC[C@]3(C)[C@H]4CC=C5[C@@H](Cc6cnoc6C5(C)C)[C@]4(C)CC[C@@]3(C)[C@@H]2C1 as the compound, how does the MIC read?
The MIC was 55.8 µM.

How did the MIC turn out when CC1(C)CC[C@]2(C)CC[C@]3(C)[C@H]4CC=C5C(C)(C)C(=O)CC[C@@]5(O)[C@]4(C)CC[C@@]3(C)[C@@H]2C1 was run?
The MIC was 56.7 µM.

For CC1(C)CC[C@]2(C)CC[C@]3(C)[C@H]4CC=C5[C@@H](CC(Br)(Br)C(=O)C5(C)C)[C@]4(C)CC[C@@]3(C)[C@@H]2C1, which MIC is on record?
Its MIC is > 50 µg/mL.

How did the MIC turn out when CC1(C)CC[C@]2(C)CC[C@]3(C)c4ccc5c(c4CC[C@@]3(C)[C@@H]2C1)C=C(Br)C(=O)C5(C)C was run?
The MIC was > 50 µg/mL.

test system: Fusarium tucumaniae; test: Antifungal activity against Fusarium tucumaniae measured after 24 to 48 hrs by turbidimetry; assay type: functional; conditions: time 24-48 hrs

How did the MIC turn out when CC1(C)CC[C@]2(C)CC[C@]3(C)[C@H]4CC=C5[C@@H](Cc6c([nH]c7ccccc67)C5(C)C)[C@]4(C)CC[C@@]3(C)[C@@H]2C1 was run?
The MIC was > 50 µg/mL.

Which MIC does the source give for C=C(C)C1=CC[C@H]2[C@@](C)(CC[C@@]3(C)[C@@H]4CC(C)(C)CC[C@]4(C)CC[C@]23C)[C@@H]1CCC#N here?
The MIC was 59.2 µM.

With CC1(C)CC[C@]2(C)CC[C@]3(C)[C@H]4CC=C5[C@@H](CC(C=O)=C(O)C5(C)C)[C@]4(C)CC[C@@]3(C)[C@@H]2C1 as the compound, how does the MIC read?
Its MIC is 110 µM.

With CC1(C)CC[C@]2(C)CC[C@]3(C)c4ccc5c(c4CC[C@@]3(C)[C@@H]2C1)C=CC(=O)C5(C)C as the compound, how does the MIC read?
Its MIC is 123 µM.

Which MIC does the source give for CC1(C)CC[C@]2(C)CC[C@]3(C)[C@H]4CC=C5[C@@H](Cc6cnn(-c7nc8ccccc8s7)c6C5(C)C)[C@]4(C)CC[C@@]3(C)[C@@H]2C1 here?
The MIC was 85.9 µM.

CC1(C)CC[C@]2(C)CC[C@]3(C)[C@@H](CC=O)[C@](C)([C@@H]4CC[C@H](O)C(C)(C)C4=O)CC[C@@]3(C)[C@@H]2C1 was tested. Which MIC did it give?
Its MIC is 109 µM.

For CC1(C)CC[C@]2(C)CC[C@]3(C)[C@H]4CC=C5[C@@H](Cc6sc(N)nc6C5(C)C)[C@]4(C)CC[C@@]3(C)[C@@H]2C1, which MIC is on record?
Its MIC is 107 µM.

With CC1(C)CC[C@]2(C)CC[C@]3(C)[C@H]4CC=C5C(=CCC(=O)C5(C)C)[C@]4(C)CC[C@@]3(C)[C@@H]2C1 as the compound, how does the MIC read?
Its MIC is > 50 µg/mL.

How did the MIC turn out when CC1(C)CC[C@]2(C)CC[C@]3(C)[C@H]4C=CC5=C(C=C(Br)C(=O)C5(C)C)[C@]4(C)CC[C@@]3(C)[C@@H]2C1 was run?
Its MIC is 100 µM.

For CC1(C)CC[C@]2(C)CC[C@]3(C)[C@H]4CC=C5[C@@H](Cc6cnoc6C5(C)C)[C@]4(C)CC[C@@]3(C)[C@@H]2C1, which MIC is on record?
The MIC was 55.8 µM.

With CC1(C)CC[C@]2(C)CC[C@]3(C)[C@H]4CC=C5C(C)(C)C(=O)CC[C@@]5(O)[C@]4(C)CC[C@@]3(C)[C@@H]2C1 as the compound, how does the MIC read?
Its MIC is 113 µM.

How did the MIC turn out when CC1(C)CC[C@]2(C)CC[C@]3(C)[C@H]4CC=C5[C@@H](CC(Br)(Br)C(=O)C5(C)C)[C@]4(C)CC[C@@]3(C)[C@@H]2C1 was run?
Its MIC is 85.9 µM.

For CC1(C)CC[C@]2(C)CC[C@]3(C)c4ccc5c(c4CC[C@@]3(C)[C@@H]2C1)C=C(Br)C(=O)C5(C)C, which MIC is on record?
The MIC was 51.7 µM.

test system: Fusarium graminearum; test: Antifungal activity against Fusarium graminearum measured after 24 to 48 hrs by turbidimetry; assay type: functional; conditions: time 24-48 hrs

How did the MIC turn out when CC1(C)CC[C@]2(C)CC[C@]3(C)[C@H]4CC=C5[C@@H](Cc6c([nH]c7ccccc67)C5(C)C)[C@]4(C)CC[C@@]3(C)[C@@H]2C1 was run?
Its MIC is > 50 µg/mL.

C=C(C)C1=CC[C@H]2[C@@](C)(CC[C@@]3(C)[C@@H]4CC(C)(C)CC[C@]4(C)CC[C@]23C)[C@@H]1CCC#N was tested. Which MIC did it give?
The MIC was > 50 µg/mL.

For CC1(C)CC[C@]2(C)CC[C@]3(C)[C@H]4CC=C5[C@@H](CC(C=O)=C(O)C5(C)C)[C@]4(C)CC[C@@]3(C)[C@@H]2C1, which MIC is on record?
Its MIC is 110 µM.

For CC1(C)CC[C@]2(C)CC[C@]3(C)c4ccc5c(c4CC[C@@]3(C)[C@@H]2C1)C=CC(=O)C5(C)C, which MIC is on record?
Its MIC is 123 µM.

With CC1(C)CC[C@]2(C)CC[C@]3(C)[C@H]4CC=C5[C@@H](Cc6cnn(-c7nc8ccccc8s7)c6C5(C)C)[C@]4(C)CC[C@@]3(C)[C@@H]2C1 as the compound, how does the MIC read?
The MIC was 85.9 µM.

Which MIC does the source give for CC1(C)CC[C@]2(C)CC[C@]3(C)[C@@H](CC=O)[C@](C)([C@@H]4CC[C@H](O)C(C)(C)C4=O)CC[C@@]3(C)[C@@H]2C1 here?
The MIC was 54.5 µM.

How did the MIC turn out when CC1(C)CC[C@]2(C)CC[C@]3(C)[C@H]4CC=C5[C@@H](Cc6sc(N)nc6C5(C)C)[C@]4(C)CC[C@@]3(C)[C@@H]2C1 was run?
The MIC was > 50 µg/mL.

CC1(C)CC[C@]2(C)CC[C@]3(C)[C@H]4CC=C5C(=CCC(=O)C5(C)C)[C@]4(C)CC[C@@]3(C)[C@@H]2C1 was tested. Which MIC did it give?
The MIC was 118 µM.

With CC1(C)CC[C@]2(C)CC[C@]3(C)[C@H]4C=CC5=C(C=C(Br)C(=O)C5(C)C)[C@]4(C)CC[C@@]3(C)[C@@H]2C1 as the compound, how does the MIC read?
The MIC was > 50 µg/mL.

With CC1(C)CC[C@]2(C)CC[C@]3(C)[C@H]4CC=C5[C@@H](Cc6cnoc6C5(C)C)[C@]4(C)CC[C@@]3(C)[C@@H]2C1 as the compound, how does the MIC read?
Its MIC is > 50 µg/mL.

How did the MIC turn out when CC1(C)CC[C@]2(C)CC[C@]3(C)[C@H]4CC=C5C(C)(C)C(=O)CC[C@@]5(O)[C@]4(C)CC[C@@]3(C)[C@@H]2C1 was run?
Its MIC is > 50 µg/mL.

CC1(C)CC[C@]2(C)CC[C@]3(C)[C@H]4CC=C5[C@@H](CC(Br)(Br)C(=O)C5(C)C)[C@]4(C)CC[C@@]3(C)[C@@H]2C1 was tested. Which MIC did it give?
The MIC was > 50 µg/mL.

With CC1(C)CC[C@]2(C)CC[C@]3(C)c4ccc5c(c4CC[C@@]3(C)[C@@H]2C1)C=C(Br)C(=O)C5(C)C as the compound, how does the MIC read?
Its MIC is 51.7 µM.

From ChEMBL document CHEMBL5584304, “Unlocking the Potential of Glutinol: Structural Diversification and Antifungal Activity against Phytopathogenic Fusarium Strains” (2024)
